Test results: patent US20050260555A1, “Chemosensitivity measurement using caspase activity” (Evotec Analytical Systems GmbH, priority 1999, published 2005)
*1 amine or outer side, *2 acyl side, *3 side chain or, on linkers, in order; H or OH if unused. Where a SMILES comes first, the peptide text is derived from it. Bridges are numbered along the chain shown (N, C = ends). Roman numbers before positions name the chains, in order. [ ]: non-standard residue; d: D form. Actinocin(9to1) = Cc1c2oc3c(C)ccc(C(=O)[*:1])c3nc-2c(C(=O)[*:2])c(N)c1=O; NMeV = CN[C@H](C(=O)O)C(C)C; Sar = CNCC(=O)O

What was measured:
Format in all cases: cell-based
HL60 cells = test: Chemosensitivity of HL60 cells, accumulated caspase activity; settings: promyeloic HL60 cells
Experimental: (§1) This object is achieved by a method for determining the chemosensitivity of cells towards at least one substance by measuring the apoptosis induced by said at least one substance, wherein the apoptosis is determined from the accumulated caspase activity of a sample comprising cells and a medium by adding said at least one substance to the sample followed by incubation, and measuring the accumulated caspase activity in the sample upon disruption of the cells without previously separating off the cells. In particular, the method according to the invention permits the use of substrates which are hardly cell-permeating or not cell-permeating at all.
It is essential that the accumulated caspase activity is measured. In this approach, cells, e.g., tumor cells of a patient, are incubated with at least one substance (e.g., cytostatic agent) for an extended period of time so that all effective pharmaceuticals, even the slowly acting, have had enough time to induce apoptosis. Subsequently, for example, a substrate present in a lysis buffer is added, and after the cell lysis has been effected, the total caspase activity formed, i.e., the accumulated activity, of the cellular suspension is measured. […] The conventionally determined (with a washing step) caspase activity increases at the same rate as the accumulated caspase activity, but decreases when the secondary necrosis begins (see FIG. 1). Thus, the principle of measuring the accumulated caspase activity permits to detect the effect of substances on the cells by a single caspase activity measurement. This test has a low need of cells and can be performed as a routine test by laboratory or technical assistants within a short time. Due to the easy automation, the personnel expenditure for performing the test is low. Since the test can be performed on ELISA reading devices, which are available everywhere, no investment in equipment is necessary. Miniaturization is possible to further reduce the consumption of materials. It could be shown that cells can be kept in culture for some days in less than 10 μl of medium. […]
The caspase activity of 250 000 Jurkat cells in 100 μl of medium was determined after different incubation times with 1 μg/ml actinomycin D both conventionally and according to the method of accumulated caspase activity according to the invention. […] The accumulated caspase activity was determined by mixing 100 μl of the cells incubated with actinomycin D, directly in suspension, with 100 μl of 2× lysis buffer. […] At room temperature, the release of fluorescent aminocoumarin by caspase was monitored every 5 min over a period of 2 h. From the linear increase of the signal, the slope was calculated as a measure of caspase activity. […]

U937 cells = test: Chemosensitivity of U937 cells, accumulated caspase activity; settings: cell line U937, FIG. 3; for effectiveness (apoptosis induction) as concentration increases: average from three independent experiments
Experimental: as §1
(§2) It is essential that the accumulated caspase activity is measured. In this approach, cells, e.g., tumor cells of a patient, are incubated with at least one substance (e.g., cytostatic agent) for an extended period of time so that all effective pharmaceuticals, even the slowly acting, have had enough time to induce apoptosis. Subsequently, for example, a substrate present in a lysis buffer is added, and after the cell lysis has been effected, the total caspase activity formed, i.e., the accumulated activity, of the cellular suspension is measured. […] The conventionally determined (with a washing step) caspase activity increases at the same rate as the accumulated caspase activity, but decreases when the secondary necrosis begins (see FIG. 1). Thus, the principle of measuring the accumulated caspase activity permits to detect the effect of substances on the cells by a single caspase activity measurement. This test has a low need of cells and can be performed as a routine test by laboratory or technical assistants within a short time. Due to the easy automation, the personnel expenditure for performing the test is low. Since the test can be performed on ELISA reading devices, which are available everywhere, no investment in equipment is necessary. Miniaturization is possible to further reduce the consumption of materials. It could be shown that cells can be kept in culture for some days in less than 10 μl of medium. The reduction of the number of cells per sample compartment […] per test enables highly parallel analyses of samples with extremely few cells from patients, e.g., from fine needle biopsies. The low need of cells also permits the high throughput screening (HTS) of unknown substances for anti-tumor activity.
The caspase activity of 250 000 Jurkat cells in 100 μl of medium was determined after different incubation times with 1 μg/ml actinomycin D both conventionally and according to the method of accumulated caspase activity according to the invention. Thus, 100 μl of Jurkat cells (2.5×10^6/ml) was incubated in the presence of actinomycin D at 5% CO2 and 37° C. in RPMI medium with 10% FCS and Pen/Strep. After the incubation, the cells were centrifuged by a conventional method and washed with PBS. The pellet was resuspended in 200 μl of lysis buffer, incubated on ice for 10 min and frozen at −20° C. The accumulated caspase activity was determined by mixing 100 μl of the cells incubated with actinomycin D, directly in suspension, with 100 μl of 2× lysis buffer. The lysate was also frozen at −20° C. All lysates were simultaneously thawed, and aminocoumarin-DEVD was added. At room temperature, the release of fluorescent aminocoumarin by caspase was monitored every 5 min over a period of 2 h. From the linear increase of the signal, the slope was calculated as a measure of caspase activity. The spontaneous caspase activities of the Jurkat cells in the absence of actinomycin D, not shown in the Figure, increase with time, but remain lower than 4 min^−1.
The chemosensitivities of U937 and HL60 cells towards the cytostatic agents indicated in FIGS. 3 and 4 were tested in the stated concentration ranges.
The effect of four cytostatic agents on the cell line U937 was tested. Each data point represents the average from three independent experiments.

[1] = system: isolated cells from the peripheral blood (PBMNC) of healthy volunteers; test: Chemosensitivity of PBMNC, caspase activity; settings: PBMNC of healthy subjects; for concentration by which caspase activity can be induced: average from three independent experiments
Experimental: as §1, §2
For establishing the test for peripheral blood or bone marrow, isolated cells from the peripheral blood (PBMNC) of healthy volunteers were tested first, taking care that acute infections, as frequently encountered in the fall/winter season, could be excluded. FIGS. 5 and 6 illustrate the results of the studies with two cytostatic agents.
As compared to tested leukemia cell lines, the PBMNCs respond later to daunorubicin.

Compound | maximum inducible caspase activity reached at the highest concentration measured (HL60 cells) | maximum inducible caspase activity (U937 cells) | effectiveness (apoptosis induction) as concentration increases (U937 cells) | plateau (unchanging maximum caspase activity) [1] | concentration by which caspase activity can be induced [1] | concentration at maximum in caspase activity (HL60 cells; apoptosis signal decreases at higher concentrations) | induced caspase activities (comparison between agents) (HL60 cells) | response compared to tested leukemia cell lines [1]
Nc1ccn([C@@H]2O[C@H](CO)[C@@H](O)[C@@H]2O)c(=O)n1 [Ara-C, cytosine arabinoside (Ara-C)] | appears not yet to have reached the maximum caspase activity | relatively low | also increases | not reached for any of the tested PBMNCs | > 200 ng/mL |  |  | 
C[C@]12C=CC(=O)C=C1CC[C@@H]1[C@@H]2[C@@H](O)C[C@@]2(C)[C@H]1CC[C@]2(O)C(=O)CO [prednisolone] |  |  | no or but a slight apoptosis induction |  |  | about 700 ng/ml |  | 
Cc1c2oc3c(C)ccc(C(=O)N[C@@H]4C(=O)N[C@H](C(C)C)C(=O)N5CCC[C@H]5C(=O)N(C)CC(=O)N(C)[C@@H](C(C)C)C(=O)O[C@@H]4C)c3nc-2c(C(=O)N[C@@H]2C(=O)N[C@H](C(C)C)C(=O)N3CCC[C@H]3C(=O)N(C)CC(=O)N(C)[C@@H](C(C)C)C(=O)O[C@@H]2C)c(N)c1=O [actinomycin D] (I: T[dV]P[Sar][NMeV] / II: T[dV]P[Sar][NMeV]; ester I:1-I:C, II:1-II:C; linker I:N-II:N via Actinocin(9to1)) |  | highest | also increases |  |  |  | higher caspase activities than Ara-C and prednisolone | 
COc1cccc2c1C(=O)c1c(O)c3c(c(O)c1C2=O)C[C@@](O)(C(C)=O)C[C@@H]3O[C@H]1C[C@H](N)[C@H](O)[C@H](C)O1 [daunorubicin] |  | significantly higher | also increases | not reached for the subjects NP1 and NP5 to NP8, and only roughly so for the subjects NP2 to NP4 | > 50 ng/mL |  | higher caspase activities than Ara-C and prednisolone | respond later
